Test results as given in patent US20250302792A1, “ACTIVE SUBSTANCES FOR MEDICAL USE” (inflamed pharma GmbH, priority 2022, published 2025).
Where a name gives a salt, the structure may show the parent alone. Read-outs that look alike come from different tables or passages of the source.

Legend:
A. fumigatus [1] = experiment: Hyphae formation of GFP-expressing A. fumigatus conidia in DMEM/BA medium (FIG. 1); format: cell-based, Aspergillus fumigatus; conditions: procaine HCl 0.31 or 1.25-10 mM, 10 h, 37° C.
Procedure: (A) Procedure for the treatment method: conidia of a green-fluorescence protein (GFP)-expressing A. fumigatus strain [5*10^6 conidia/well] were sown on cover slips in 24-well plates in 300 μl of DMEM/BA medium (0.2% BSA, 1 mM MgCl2 and 0.9 mM CaCl2) and, in each case supplemented with solvent (H2O), procaine HCl [0.31 (B) or 1.25 (C)—10 mM] or voriconazole [0.2 μg ml^−1], incubated at 37° C., 5% CO2, for 10 h. Subsequently, the fungi were fixed (3.7% formaldehyde in PBS, 30 min, room temperature) and applied to microscope slides with the aid of fluorescent dye solution (Agilent, Santa Clara, CA, USA). The hyphae size was analyzed by (B) Axio Observer.Z1 microscope (Zeiss, Jena, Germany) and the Fiji V 1.52b software (github.com/fiji/fiji). (C) Fungus size was calculated with the particle counter software (github.com/chko90/particle counter). The data are a representation of four experiments (B) or the mean+SD of four experiments with two technical samples in each case (C). Statistical significance was calculated with GraphPad Prism 9.2 (Graphpad Software, Boston, USA) using the one-way ANOVA Dunnett multiple comparison test. P values are indicated by asterisks *p<0.05.

A. fumigatus [2] = experiment: Hyphae formation of A. fumigatus in a human cell-free system, DMEM with 10% FCS (FIG. 4); format: cell-based, Aspergillus fumigatus; conditions: 10 h
Procedure: (A) Procedure for the treatment method: conidia of a GFP-expressing A. fumigatus strain [5*10^6 conidia/well] was sown on cover slips in 24-well plates and incubated with solvent (H2O) or with the specified concentrations of voriconazole, ProcCluster® (B-C) or procaine HCl (D-E) in DMEM with 10% FCS at 37° C., 5% CO2, for 10 h. Subsequently, the fungi were fixed (3.7% formaldehyde in PBS, 1 h, room temperature) and applied to microscope slides with fluorescent dye solution (Agilent, Santa Clara, CA, USA). (B, D) The growth of A. fumigatus was visualized via internal GFP expression. The scale of the immunofluorescence images corresponds to 100 μm. Detection of immunofluorescence and imaging and image processing were effected with an Axio Observer.Z1 microscope (Zeiss, Jena, Germany) and the Fiji V 1.52b software (github.com/fiji/fiji). (C, E) Fungus size was determined by means of the particle counter software (github.com/chko90/particle counter). Five immunofluorescence images were taken for each sample. The fungus sizes ascertained were normalized and the solvent control was set at 100%. Statistical significance was ascertained by a one-way ANOVA test with Dunnett multiple comparison test using GraphPad Prism 9.2 (Graphpad Software, Boston, USA) (p<0.05 was considered to be the level of statistical significance).

[3] = tested on: influenza virus A/Puerto Rico/8/34; format: cell-based
[4] = tested on: influenza virus A/Puerto Rico/8/34 (IAV); format: cell-based
A. fumigatus [5] = format: cell-based, Aspergillus fumigatus
A. fumigatus [6] = format: cell-based, Aspergillus fumigatus; remark: listed apart in the source
[7] = Solubility in octanol, content by UV/VIS spectroscopy and pH; format: physicochemical; conditions: for pH: solubility test in octanol
Procedure: Solubility tests in octanol were conducted, and the content in the organic phase was examined by UV/VIS spectroscopy, as were the pH values.

| SMILES | hyphae formation by A. fumigatus (A. fumigatus [1]) | hyphae formation (A. fumigatus [2]) | pathogenic load of influenza viruses [3] | virus load [4] | pathogenic load of A. fumigatus (A. fumigatus [5]) | hyphae formation (A. fumigatus [6]) | Content (solubility in octanol, content in the organic phase) ([7]; octanol, UV/VIS spectroscopy, hydrochloride) | Content (solubility in octanol, content in the organic phase) ([7]; octanol, UV/VIS spectroscopy, listed as Procaine HCl, hydrochloride) | pH ([7]; hydrochloride) | membrane permeability concluded from solubility in the organic phase ([7]; octanol) | Content (solubility in octanol, content in the organic phase) ([7]; octanol, UV/VIS spectroscopy) | pH [7] | Content (solubility in octanol, content in the organic phase) [7] |
| --- | --- | --- | --- | --- | --- | --- | --- | --- | --- | --- | --- | --- | --- |
| CCN(CC)CCOC(=O)c1ccc(N)cc1 [Procaine hydrochloride, procaine hydrochloride] | reduces hyphae formation | reduced hyphae formation | reduced | reduced virus load | reduced | reduced | 8% | 8% | 4.5 | – | – | – | – |
| CCN(CC)CCOC(=O)c1ccc(N)cc1.O=C(O)O [Carbonic acid adduct of procaine] | – | – | – | – | – | – | – | – | – | membrane-permeable | 74% | 7.5 | – |
| CCN(CC)CCOC(=O)c1ccc(N)cc1 [Procaine, 2-(N,N-diethylamino)ethyl 4-aminobenzoate] | – | – | – | – | – | – | – | – | – | – | – | 8.5 | completely dissolved (100%) |
